The source of these data is patent publication US20190374533A1, “COMPOUNDS AND METHODS FOR INHIBITING NHE-MEDIATED ANTIPORT IN THE TREATMENT OF DISORDERS ASSOCIATED WITH FLUID RETENTION OR SALT OVERLOAD AND GASTROINTESTINAL TRACT DISORDERS” (Ardelyx, Inc., priority 2008, published 2019).

For orientation: Papp A→B means the apparent permeability from the apical to the basolateral side of a cell layer. Higher therefore signals ready permeation. In general, AUC refers to the area under the concentration-time curve, a measure of exposure. A high value points to more exposure. Broadly, the Cmax is the maximum level reached in the sampled fluid or tissue.

One series deals with T1, rat NHE-3 (Rattus norvegicus, UniProt P26433).
T1 construct: expressed in transfected cells; host or cells: Opossum kidney (OK) cells (ATCC), electroporated
T1 sequence (P26433 29-831): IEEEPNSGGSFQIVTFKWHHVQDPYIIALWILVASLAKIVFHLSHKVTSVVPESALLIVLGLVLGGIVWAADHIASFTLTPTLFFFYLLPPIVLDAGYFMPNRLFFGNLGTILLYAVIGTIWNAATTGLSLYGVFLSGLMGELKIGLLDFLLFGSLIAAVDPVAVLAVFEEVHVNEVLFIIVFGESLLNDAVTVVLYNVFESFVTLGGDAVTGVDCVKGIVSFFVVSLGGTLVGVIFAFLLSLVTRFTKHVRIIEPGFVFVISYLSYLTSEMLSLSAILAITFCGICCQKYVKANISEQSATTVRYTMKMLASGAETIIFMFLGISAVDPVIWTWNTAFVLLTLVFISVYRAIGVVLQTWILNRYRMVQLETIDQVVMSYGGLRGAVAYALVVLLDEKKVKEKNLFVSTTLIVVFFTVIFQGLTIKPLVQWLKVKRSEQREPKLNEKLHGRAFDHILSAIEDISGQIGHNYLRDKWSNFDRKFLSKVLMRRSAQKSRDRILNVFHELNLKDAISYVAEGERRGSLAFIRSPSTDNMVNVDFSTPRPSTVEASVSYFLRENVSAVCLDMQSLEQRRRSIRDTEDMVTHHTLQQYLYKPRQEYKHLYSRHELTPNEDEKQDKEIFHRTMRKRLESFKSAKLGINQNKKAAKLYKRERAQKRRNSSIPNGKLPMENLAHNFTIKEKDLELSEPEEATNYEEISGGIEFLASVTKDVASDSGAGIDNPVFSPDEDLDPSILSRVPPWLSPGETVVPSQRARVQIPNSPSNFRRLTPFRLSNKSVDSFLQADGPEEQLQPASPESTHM
Briefly: Cell-based assay of NHE-3 activity (Pharmacological Test Example 1). To be noted: OK cells expressing rat NHE-3; 0-30 uM test compound, 5 uM EIPA. The method, boiled down: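 OK cells electroporated with rat NHE-3, loaded with 5 uM BCECF-AM in NH4Cl-HEPES (pH 7.4) for 30 min at room temperature, then acid-loaded 10 min in Na+-free choline buffer. Na+-dependent H+ antiport read as initial rate of pH-dye change; pIC50 from 3-6 replicate averages.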

Series [1] can be described thus: Parallel artificial membrane permeability assay (PAMPA). The conditions noted are these: pH 7.4. On the technique in general: In PAMPA a lipid-coated filter parts donor from acceptor wells.
A short description of series [2]: Determination of compound Cmax and AUC. It is filed as in vivo. To be noted: rat; Sprague-Dawley rats, oral gavage, serum 0.5-4 h; actual oral dose (mg/kg) given. An outline of the steps:
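Sprague-Dawley rats dosed orally by gavage at 2.5 mg/kg; serum sampled at 0.5, 1, 2 and 4 h. Acetonitrile protein precipitation, then LC/MS/MS quantitation against a standard curve.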

With `NC(N)=Nc1nc(-c2cccc(N3CCN(CCO)CC3)c2)c2cc(Cl)ccc2n1` [Example 68, 2-(6-chloro-4-(3-(4-(2-hydroxyethyl)piperazin-1-yl)phenyl)quinazolin-2-yl)guanidine], the “rat NHE-3 Average pIC50” value at rat NHE-3 lay in the range of 6 to 7. In series [1], this molecule returned an apparent permeability from apical to basolateral (Papp A→B) at 3 h, 20 uM of 0.35 ×10⁻⁶ cm/s.
On the same counts, the results for `C/C(=C\c1cc(F)c(Oc2ccc(S(=O)(=O)NCCCP(=O)(O)O)cc2)c(F)c1)C(=O)N=C(N)N` [Example 54, (E)-3-(4-(4-(3-(diaminomethyleneamino)-2-methyl-3-oxoprop-1-enyl)-2,6-difluorophenoxy)phenylsulfonamido)propylphosphonic acid] are 5 to 6 and 1.3 ×10⁻⁶ cm/s.
In the case of `C/C(=C\c1cc(F)c(Oc2ccc(S(=O)(=O)NCc3ccc(CP(=O)(O)O)cc3)cc2)c(F)c1)C(=O)N=C(N)N` [Example 52, (E)-4-((4-(4-(3-(diaminomethyleneamino)-2-methyl-3-oxoprop-1-enyl)-2,6-difluorophenoxy)phenylsulfonamido)methyl)benzylphosphonic acid], the “rat NHE-3 Average pIC50” value at rat NHE-3 lay in the range of 5 to 6. The molecule also registered a Papp A→B at 3 h, 20 uM in series [1] of 1.61 ×10⁻⁶ cm/s.
Take `CN1Cc2c(Cl)cc(Cl)cc2C(c2ccc(NS(=O)(=O)NCCP(=O)([O-])[O-])cc2)C1.[Na+].[Na+]` (stereo not drawn) [Example 30, 2-(N-(4-(6,8-dichloro-2-methyl-1,2,3,4-tetrahydroisoquinolin-4-yl)phenyl)sulfamoylamino)ethylphosphonic acid]: at rat NHE-3, the “rat NHE-3 Average pIC50” value is reported as 5 to 6. Besides, the Papp A→B at 3 h, 20 uM in series [1] came out at 0.56 ×10⁻⁶ cm/s.
On to `CN1Cc2c(Cl)cc(Cl)cc2C(c2cccc(S(=O)(=O)NCCP(=O)(O)O)c2)C1` (stereo not drawn) [Example 1, 2-(3-(6,8-dichloro-2-methyl-1,2,3,4-tetrahydroisoquinolin-4-yl)phenylsulfonamido)ethylphosphonic acid], for which, in series [2], the area under the curve (AUC) was 53 ng·h/mL and the peak concentration (Cmax) is 21 ng/mL. The apical-to-basolateral permeability (Papp A→B) at 3 h, 20 uM in series [1] was found to be 0.53 ×10⁻⁶ cm/s.
As to `CN1Cc2c(Cl)cc(Cl)cc2C(c2cccc(S(=O)(=O)NCCCS(=O)(=O)O)c2)C1` (stereo not drawn) [Example 7, 3-(3-(6,8-dichloro-2-methyl-1,2,3,4-tetrahydroisoquinolin-4-yl)phenylsulfonamido)propane-1-sulfonic acid], in series [1], the Papp A→B at 3 h, 20 uM amounted to 0.5 ×10⁻⁶ cm/s.
On the same count and under the same terms, next, `COCCNC(=O)NS(=O)(=O)c1ccc(Oc2c(F)cc(/C=C(\C)C(=O)N=C(N)N)cc2F)cc1` [Example 58, (E)-N-(diaminomethylene)-3-(3,5-difluoro-4-(4-(N-(2-methoxyethylcarbamoyl)sulfamoyl)phenoxy)phenyl)-2-methylacrylamide]: 0.2 ×10⁻⁶ cm/s; `C/C(=C\c1cc(F)c(Oc2ccc(S(=O)(=O)Nc3ccc(CP(=O)(O)O)cc3)cc2)c(F)c1)C(=O)N=C(N)N` [Example 53, (E)-4-(4-(4-(3-(diaminomethyleneamino)-2-methyl-3-oxoprop-1-enyl)-2,6-difluorophenoxy)phenylsulfonamido)benzylphosphonic acid]: 1.6 ×10⁻⁶ cm/s.
Still for that read-out and setting: for `CN1Cc2c(Cl)cc(Cl)cc2C(c2ccc(S(=O)(=O)NCc3ccc(CP(=O)(O)O)cc3)cc2)C1` (stereo not drawn) [Example 14, (4-((4-(6,8-dichloro-2-methyl-1,2,3,4-tetrahydroisoquinolin-4-yl)phenylsulfonamido)methyl)phenyl) methylphosphonic acid] the value was 0.4 ×10⁻⁶ cm/s; for `C/C(=C\c1cc(F)c(Oc2ccc(S(=O)(=O)NC(=O)NCCN(C)C)cc2)c(F)c1)C(=O)N=C(N)N` [Example 75, (E)-N-(diaminomethylene)-3-(4 (4-(N-(2-(dimethylamino)ethylcarbamoyl)sulfamoyl)phenoxy)-3,5-difluorophenyl)-2-methylacrylamide], 0.4 ×10⁻⁶ cm/s.
Consider `CN1Cc2c(Cl)cc(Cl)cc2C(c2ccc(NC(=O)N[C@@H](CCC(=O)O)C(=O)O)cc2)C1` (stereo partly drawn) [Example 36], for which, in series [1], the Papp A→B at 3 h, 20 uM amounted to 0.2 ×10⁻⁶ cm/s.
Same read-out and setting: next, `CN1Cc2c(Cl)cc(Cl)cc2C(c2ccc(S(=O)(=O)N(CC(=O)O)CP(=O)(O)O)cc2)C1` (stereo not drawn) [Example 72, 2-(4-(6,8-dichloro-2-methyl-1,2,3,4-tetrahydroisoquinolin-4-yl)-N-(phosphonomethyl)phenylsulfonamido)acetic acid]: 0.2 ×10⁻⁶ cm/s; `NC(N)=Nc1nc(-c2ccc(N3CCN(CCCC(=O)O)CC3)cc2)c2cc(Cl)ccc2n1` [Example 73, 4-(4-(4-(6-chloro-2-(diaminomethyleneamino)quinazolin-4-yl)phenyl)piperazin-1-yl)butanoic acid]: 0.27 ×10⁻⁶ cm/s; `C/C(=C\c1cc(F)c(Oc2ccc(S(=O)(=O)Nc3ccc(P(=O)(O)O)cc3)cc2)c(F)c1)C(=O)N=C(N)N` [Example 51, (E)-4-(4-(4-(3-(diaminomethyleneamino)-2-methyl-3-oxoprop-1-enyl)-2,6-difluorophenoxy)phenylsulfonamido)phenylphosphonic acid]: 0.2 ×10⁻⁶ cm/s.
Turning to `CN1Cc2c(Cl)cc(Cl)cc2C(c2ccc(NC(=O)N[C@@H](CC(=O)O)C(=O)O)cc2)C1` (stereo partly drawn) [Example 34, (2S)-2-(3-(4-(6,8-dichloro-2-methyl-1,2,3,4-tetrahydroisoquinolin-4-yl)phenyl)ureido)succinic acid], the Papp A→B at 3 h, 20 uM in series [1] was found to be 0.2 ×10⁻⁶ cm/s.
The same measure, in the same setting: for `CCNC(=O)NS(=O)(=O)c1ccc(Oc2c(F)cc(/C=C(\C)C(=O)N=C(N)N)cc2F)cc1` [Example 74] the value was 0.45 ×10⁻⁶ cm/s; for `C/C(=C\c1cc(F)c(Oc2ccc(S(=O)(=O)NCCCS(=O)(=O)O)cc2)c(F)c1)C(=O)N=C(N)N` [Example 71, (E)-3-(4-(4-(3-(diaminomethyleneamino)-2-methyl-3-oxoprop-1-enyl)-2,6-difluorophenoxy)phenylsulfonamido)propane-1-sulfonic acid], 0.45 ×10⁻⁶ cm/s; for `CN1Cc2c(Cl)cc(Cl)cc2C(c2ccc(S(=O)(=O)NCCOCCOCCNS(=O)(=O)c3ccc(C4CN(C)Cc5c(Cl)cc(Cl)cc54)cc3)cc2)C1` (stereo not drawn) [Example 27, N,N′-(2,2′-(ethane-1,2-diylbis(oxy))bis(ethane-2,1-diyl))bis(4-(6,8-dichloro-2-methyl-1,2,3,4-tetrahydroisoquinolin-4-yl)benzenesulfonamide)], < 0.02 ×10⁻⁶ cm/s.
On the same count and under the same terms, for `C/C(=C\c1cc(F)c(Oc2ccc(S(=O)(=O)NCP(=O)(O)O)cc2)c(F)c1)C(=O)N=C(N)N` [Example 56, (E)-(4-(4-(3-(diaminomethyleneamino)-2-methyl-3-oxoprop-1-enyl)-2,6-difluorophenoxy)phenylsulfonamido)methylphosphonic acid] the value was 0.5 ×10⁻⁶ cm/s.
The same measure, in the same setting: for `CN1Cc2c(Cl)cc(Cl)cc2C(c2cccc(S(=O)(=O)Nc3ccc(CP(=O)(O)O)cc3)c2)C1` (stereo not drawn) [Example 3, 4-(3-(6,8-dichloro-2-methyl-1,2,3,4-tetrahydroisoquinolin-4-yl)phenylsulfonamido)benzylphosphonic acid] the value was 0.8 ×10⁻⁶ cm/s.
Consider `CN1Cc2c(Cl)cc(Cl)cc2C(c2ccc(S(=O)(=O)Nc3ccc(P(=O)(O)O)cc3)cc2)C1` (stereo not drawn) [Example 76, 4-(4-(6,8-dichloro-2-methyl-1,2,3,4-tetrahydroisoquinolin-4-yl)phenylsulfonamido)phenylphosphonic acid], for which, in series [1], the Papp A→B at 3 h, 20 uM turned out to be 0.2 ×10⁻⁶ cm/s.
